# Measurements reported in publication PMC11111408, “Concurrent inhibition of oncogenic and wild-type RAS-GTP for cancer therapy” (Nature, 2024).
# Where “and” joins values, the source holds several entries; their conditions need not be identical. Identical values can stand only once.
# How the values were obtained:
# [1] = system: KRAS^G12X PDAC, CRC and NSCLC xenograft models; assay: Panel of 15 KRAS^G12X CDX and PDX xenograft models; assay type: in vivo, mouse; settings: for % Tumor Volume Change: PSN-1, BALB/c nude mice, 10 mg/kg po qd, 10 mg/kg
# Description: Xenograft studies were conducted at GenenDesign, Pharmaron, Wuxi AppTec, the laboratory of P. Lito, and the laboratory of C. Ambrogio. […] All procedures related to animal handling, care and treatment were conducted in compliance with all applicable regulations and guidelines of the relevant Institutional Animal Care and Use Committee (IACUC). […] Experimental details are supplied in the Supplementary Methods.
# [2] = target: T1, MRAS and other RAS family small GTPase proteins (Homo sapiens, UniProt P10301, G38V); assay: Cellular BRET between CYPA and small GTPases (RIT1, MRAS, RRAS, RRAS2, Rheb); assay type: cell-based; settings: RRAS G38V, single replicates
# T1 construct: expressed in transfected cells; host or cells: U2OS PPIA-KO
# T1 sequence (P10301 1-218 G38V): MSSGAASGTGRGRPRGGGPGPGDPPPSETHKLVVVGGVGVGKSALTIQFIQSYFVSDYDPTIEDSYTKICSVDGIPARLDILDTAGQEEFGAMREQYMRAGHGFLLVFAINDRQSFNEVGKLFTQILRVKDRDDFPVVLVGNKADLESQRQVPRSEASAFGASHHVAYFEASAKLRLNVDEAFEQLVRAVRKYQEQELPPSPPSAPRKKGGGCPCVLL
# [3] = target: T2, MRAS and other RAS family small GTPase proteins (Homo sapiens, UniProt O14807, Q71R); assay: as above; assay type: cell-based; settings: MRAS Q71R, single replicates
# T2 construct: expressed in transfected cells; host or cells: U2OS PPIA-KO
# T2 sequence (O14807 1-208 Q71R): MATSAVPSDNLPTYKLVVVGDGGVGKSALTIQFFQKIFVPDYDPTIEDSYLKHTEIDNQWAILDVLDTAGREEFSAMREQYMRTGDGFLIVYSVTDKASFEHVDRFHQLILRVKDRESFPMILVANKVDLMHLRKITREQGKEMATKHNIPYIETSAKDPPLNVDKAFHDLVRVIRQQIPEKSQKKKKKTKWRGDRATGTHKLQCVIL
# [4] = target: T3, MRAS and other RAS family small GTPase proteins (Homo sapiens, UniProt Q15382); assay: as above; assay type: cell-based; settings: RHEB, single replicates
# T3 construct: expressed in transfected cells; host or cells: U2OS PPIA-KO
# [5] = system: MRAS and other RAS family small GTPase proteins; assay: as above; assay type: cell-based, human; settings: cellular BRET with CYPA
# [6] = target: T4, MRAS and other RAS family small GTPase proteins (Homo sapiens, UniProt P62070, G23V); assay: as above; assay type: cell-based; settings: RRAS2 G23V, single replicates
# T4 construct: expressed in transfected cells; host or cells: U2OS PPIA-KO
# T4 sequence (P62070 1-204 G23V): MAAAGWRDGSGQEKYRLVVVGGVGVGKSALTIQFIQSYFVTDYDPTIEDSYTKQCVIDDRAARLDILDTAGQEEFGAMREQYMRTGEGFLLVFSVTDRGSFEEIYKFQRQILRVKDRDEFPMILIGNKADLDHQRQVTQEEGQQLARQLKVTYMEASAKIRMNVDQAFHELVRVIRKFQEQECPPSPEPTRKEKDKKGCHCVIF
# [7] = target: T5, MRAS and other RAS family small GTPase proteins (Homo sapiens, UniProt Q92963); assay: as above; assay type: cell-based; settings: RIT1, single replicates
# T5 construct: expressed in transfected cells; host or cells: U2OS PPIA-KO
# T5 sequence (Q92963 whole entry): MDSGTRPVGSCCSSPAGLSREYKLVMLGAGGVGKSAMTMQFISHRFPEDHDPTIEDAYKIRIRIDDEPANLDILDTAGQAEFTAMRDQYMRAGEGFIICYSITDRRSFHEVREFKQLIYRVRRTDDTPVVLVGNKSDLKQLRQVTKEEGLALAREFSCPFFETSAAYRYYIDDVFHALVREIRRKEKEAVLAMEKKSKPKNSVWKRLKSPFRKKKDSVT
# T3 sequence (Q15382 whole entry): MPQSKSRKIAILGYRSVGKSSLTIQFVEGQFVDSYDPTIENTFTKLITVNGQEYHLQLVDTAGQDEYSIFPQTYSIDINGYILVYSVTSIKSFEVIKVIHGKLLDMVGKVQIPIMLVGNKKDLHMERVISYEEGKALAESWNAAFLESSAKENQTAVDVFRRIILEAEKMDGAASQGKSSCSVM
compound,measurement,setting,value
CCn1c(-c2cc(N3CCN(C4CC4)CC3)cnc2[C@H](C)OC)c2c3cc(ccc31)-c1csc(n1)C[C@H](NC(=O)[C@H]1[C@@H]3COC[C@@H]31)C(=O)N1CCC[C@H](N1)C(=O)OCC(C)(C)C2 [RMC-7977],% Tumor Volume Change,"[1]; day 21, individual animals",121% and 60%
same,% Tumor Volume Change,"[1]; day 24, individual animals",131% and 55%
same,% Tumor Volume Change,"[1]; day 28, individual animals",132%
same,median time to tumour doubling,"[1]; treatment up to 90 days, Kaplan–Meier analysis",did not reach a median time to tumour doubling
same,Cellular milliBRET signal between CYPA and small GTPase protein,[2]; RMC-7977 1.524 nM,0.03915 milliBRET and 0.5182 milliBRET and 0.5529 milliBRET and 0.4086 milliBRET and -0.3288 milliBRET and -0.1046 milliBRET
same,Cellular milliBRET signal between CYPA and small GTPase protein,[2]; RMC-7977 4.572 nM,0.5753 milliBRET and 0.4746 milliBRET and 0.4726 milliBRET and 0.8392 milliBRET and 0.3184 milliBRET and -0.4343 milliBRET
same,Cellular milliBRET signal between CYPA and small GTPase protein,[2]; RMC-7977 13.717 nM,1.433 milliBRET and 1.375 milliBRET and 1.967 milliBRET and 1.168 milliBRET and -0.05818 milliBRET and -0.1444 milliBRET
same,Cellular milliBRET signal between CYPA and small GTPase protein,[2]; RMC-7977 41.152 nM,2.179 milliBRET and 2.7799 milliBRET and 3.446 milliBRET and 3.438 milliBRET and 1.092 milliBRET and 1.757 milliBRET
same,Cellular milliBRET signal between CYPA and small GTPase protein,[2]; RMC-7977 123.457 nM,6.2456 milliBRET and 5.867 milliBRET and 7.851 milliBRET and 6.806 milliBRET and 4.695 milliBRET and 3.825 milliBRET
same,Cellular milliBRET signal between CYPA and small GTPase protein,[2]; RMC-7977 370.370 nM,10.4854 milliBRET and 10.0017 milliBRET and 10.9416 milliBRET and 10.5658 milliBRET and 8.5015 milliBRET and 8.57 milliBRET
same,Cellular milliBRET signal between CYPA and small GTPase protein,[2]; RMC-7977 1111.111 nM,11.032 milliBRET and 12.1599 milliBRET and 11.6879 milliBRET and 11.9893 milliBRET and 10.1243 milliBRET and 10.2861 milliBRET
same,Cellular milliBRET signal between CYPA and small GTPase protein,[3]; RMC-7977 1.524 nM,0.1742 milliBRET and -0.02549 milliBRET and -0.02476 milliBRET and 0.1125 milliBRET and -0.009573 milliBRET and 0.6001 milliBRET
same,Cellular milliBRET signal between CYPA and small GTPase protein,[3]; RMC-7977 4.572 nM,0.2187 milliBRET and 0.4442 milliBRET and 0.7681 milliBRET and 0.6759 milliBRET and 0.0576 milliBRET and 0.4387 milliBRET
same,Cellular milliBRET signal between CYPA and small GTPase protein,[3]; RMC-7977 13.717 nM,1.192 milliBRET and 1.33 milliBRET and 1.81 milliBRET and 1.499 milliBRET and 1.997 milliBRET and 1.461 milliBRET
same,Cellular milliBRET signal between CYPA and small GTPase protein,[3]; RMC-7977 41.152 nM,3.258 milliBRET and 4.102 milliBRET and 3.883 milliBRET and 4.836 milliBRET and 4.487 milliBRET and 5.493 milliBRET
same,Cellular milliBRET signal between CYPA and small GTPase protein,[3]; RMC-7977 123.457 nM,7.175 milliBRET and 7.5859 milliBRET and 7.924 milliBRET and 8.745 milliBRET and 8.3065 milliBRET and 8.689 milliBRET
same,Cellular milliBRET signal between CYPA and small GTPase protein,[3]; RMC-7977 370.370 nM,10.161 milliBRET and 10.397 milliBRET and 10.5343 milliBRET and 10.3086 milliBRET and 10.5443 milliBRET and 10.7709 milliBRET
same,Cellular milliBRET signal between CYPA and small GTPase protein,[3]; RMC-7977 1111.111 nM,10.7121 milliBRET and 10.5516 milliBRET and 12.3365 milliBRET and 10.0544 milliBRET and 11.7366 milliBRET and 10.787 milliBRET
same,Cellular milliBRET signal between CYPA and small GTPase protein,[4]; RMC-7977 1.524 nM,-0.45 milliBRET and -0.2239 milliBRET and 0.1289 milliBRET and 0.6887 milliBRET and -0.5364 milliBRET and -0.5485 milliBRET
same,Cellular milliBRET signal between CYPA and small GTPase protein,[4]; RMC-7977 4.572 nM,0.6966 milliBRET and 0.368 milliBRET and 0.4716 milliBRET and -0.2095 milliBRET and 0.8367 milliBRET and -0.3539 milliBRET
same,Cellular milliBRET signal between CYPA and small GTPase protein,[4]; RMC-7977 13.717 nM,1.377 milliBRET and 0.5452 milliBRET and 0.5599 milliBRET and 0.1038 milliBRET and 0.7915 milliBRET and 0.2385 milliBRET
same,Cellular milliBRET signal between CYPA and small GTPase protein,[4]; RMC-7977 41.152 nM,0.3762 milliBRET and 0.1445 milliBRET and -0.08351 milliBRET and -0.3538 milliBRET and 0.07098 milliBRET and 0.09785 milliBRET
same,Cellular milliBRET signal between CYPA and small GTPase protein,[4]; RMC-7977 123.457 nM,1.173 milliBRET and 0.0474 milliBRET and 0.6247 milliBRET and 0.06196 milliBRET and -0.03233 milliBRET and -0.4308 milliBRET
same,Cellular milliBRET signal between CYPA and small GTPase protein,[4]; RMC-7977 370.370 nM,0.02833 milliBRET and 1.208 milliBRET and -0.3412 milliBRET and 1.195 milliBRET and -0.2334 milliBRET and 1.355 milliBRET
same,Cellular milliBRET signal between CYPA and small GTPase protein,[4]; RMC-7977 1111.111 nM,0.8505 milliBRET and -0.1562 milliBRET and 0.9686 milliBRET and -0.197 milliBRET and 0.47 milliBRET and 0.6063 milliBRET
same,tri-complex formation potency for KRAS versus MRAS and other RAS family small GTPases,[5],more than tenfold more potent
same,Cellular milliBRET signal between CYPA and small GTPase protein,[6]; RMC-7977 1.524 nM,-0.2719 milliBRET and -0.4231 milliBRET and 0.2605 milliBRET and -0.1984 milliBRET and 0.524 milliBRET and 0.04711 milliBRET
same,Cellular milliBRET signal between CYPA and small GTPase protein,[6]; RMC-7977 4.572 nM,-0.5269 milliBRET and -0.1093 milliBRET and -0.06611 milliBRET and -0.1023 milliBRET and 0.1899 milliBRET and 0.4007 milliBRET
same,Cellular milliBRET signal between CYPA and small GTPase protein,[6]; RMC-7977 13.717 nM,0.6404 milliBRET and 0.07312 milliBRET and 0.4941 milliBRET and 0.7558 milliBRET and 0.6549 milliBRET and 1.032 milliBRET
same,Cellular milliBRET signal between CYPA and small GTPase protein,[6]; RMC-7977 41.152 nM,0.4251 milliBRET and 1.3441 milliBRET and 1.494 milliBRET and 1.804 milliBRET and 1.776 milliBRET and 2.155 milliBRET
same,Cellular milliBRET signal between CYPA and small GTPase protein,[6]; RMC-7977 123.457 nM,1.79 milliBRET and 2.3918 milliBRET and 3.205 milliBRET and 3.2803 milliBRET and 3.617 milliBRET and 3.886 milliBRET
same,Cellular milliBRET signal between CYPA and small GTPase protein,[6]; RMC-7977 370.370 nM,4.62 milliBRET and 5.516 milliBRET and 5.967 milliBRET and 6.807 milliBRET and 6.877 milliBRET and 7.887 milliBRET
same,Cellular milliBRET signal between CYPA and small GTPase protein,[6]; RMC-7977 1111.111 nM,5.956 milliBRET and 7.6238 milliBRET and 6.926 milliBRET and 8.351 milliBRET and 7.549 milliBRET and 9.519 milliBRET
same,Cellular milliBRET signal between CYPA and small GTPase protein,[7]; RMC-7977 1.524 nM,-0.09879 milliBRET and 0.3095 milliBRET and 0.2348 milliBRET and 0.5374 milliBRET and 0.06248 milliBRET and 1.089 milliBRET
same,Cellular milliBRET signal between CYPA and small GTPase protein,[7]; RMC-7977 4.572 nM,1.317 milliBRET and 0.9916 milliBRET and 1.087 milliBRET and 0.9533 milliBRET and 1.62 milliBRET and 0.6301 milliBRET
same,Cellular milliBRET signal between CYPA and small GTPase protein,[7]; RMC-7977 13.717 nM,2.2977 milliBRET and 1.206 milliBRET and 2.0899 milliBRET and 1.6222 milliBRET and 2.532 milliBRET and 1.262 milliBRET
same,Cellular milliBRET signal between CYPA and small GTPase protein,[7]; RMC-7977 41.152 nM,3.198 milliBRET and 4.946 milliBRET and 3.114 milliBRET and 5.017 milliBRET and 3.557 milliBRET and 4.376 milliBRET
same,Cellular milliBRET signal between CYPA and small GTPase protein,[7]; RMC-7977 123.457 nM,3.95 milliBRET and 6.444 milliBRET and 3.939 milliBRET and 6.521 milliBRET and 4.166 milliBRET and 6.383 milliBRET
same,Cellular milliBRET signal between CYPA and small GTPase protein,[7]; RMC-7977 370.370 nM,5.287 milliBRET and 9.701 milliBRET and 5.757 milliBRET and 9.124 milliBRET and 5.435 milliBRET and 8.897 milliBRET
same,Cellular milliBRET signal between CYPA and small GTPase protein,[7]; RMC-7977 1111.111 nM,5.773 milliBRET and 8.825 milliBRET and 5.603 milliBRET and 8.649 milliBRET and 4.274 milliBRET and 8.593 milliBRET
